Here are results for 6 compounds from publication PMC7463537, “Synthesis and Evaluation of Antimicrobial and Cytotoxic Activity of Oxathiine-Fused Quinone-Thioglucoside Conjugates of Substituted 1,4-Naphthoquinones” (Molecules, 2020).

Values after ≈ are worked out from the molar mass of the structure shown. Like-named read-outs stand apart in the source and are kept apart here. A value given as a limit tells only on which side of the number the result lay.

One data set deals with P. aeruginosa ATCC 27853. The data set can be described thus: Agar diffusion method, P. aeruginosa. The class given is cell-based, Pseudomonas aeruginosa. The conditions noted are these: for zone of inhibition at 100 µg/disc: Pseudomonas aeruginosa, ATCC27853, 100 µg/well, read-out: Diameter of Zone Inhibition, P. aeruginosa. As for the experimental part: (§1) Elyakov Pacific Institute of Bioorganic Chemistry, Far East Branch, Russian Academy of Sciences. Test substances were dissolved in DMSO at concentrations of 1.0, 0.1, and 0.01 mg/mL. All strains were grown on trypticase-soy agar TSA (BBL) at 37 °C. […] After incubation of the dishes at 37 °C for 24 h (for bacteria) and 48 h (for the fungus) at 28 °C, the diameters of the growth inhibition zones of pathogenic microorganisms (mm) were measured, including the diameter of the wells. Commercial antibacterial drugs (vancomicin and gentamicin) and antifungal (clotrimazol) drugs were used as positive controls.
(In agar diffusion tests the substance spreads into inoculated agar from a disc or well.)

In the next data set the test system is E. coli K-12. In words: Agar diffusion method, E. coli. The data set is classed as cell-based, Escherichia coli. Particulars: Escherichia coli, K12; 100 µg/well; read-out: Diameter of Zone Inhibition, E. coli. As for the experimental part: as §1
Another data set deals with B. cereus ATCC 10702. The data set can be described thus: Agar diffusion method, B. cereus. Further details: key to Diameter of Zone Inhibition, B. cereus: Zones within 20–40 mm mean strong antibiotic activity; zones up to 20 mm—moderate; ≤10 mm—weak; +—insignificant. The class given is cell-based, Bacillus cereus. Particulars: 100 µg/well, 24 h, incl. 7 mm well; for zone of inhibition at 100 µg/disc: Bacillus cereus, ATCC10702, 24 h, read-out: Diameter of Zone Inhibition, B. cereus. As for the experimental part: as §1

Data set [1] relates to mouse neuroblastoma (Neuro 2a). In words: Cytotoxicity, MTT assay, Neuro 2a cells. Particulars: for EC50: 24 h, read-out: Cytotoxicity (EC50), Neuro 2a; for Selectivity Index (SI), Neuro-2a: SI = EC50 (Jb6 Cl 41-5a normal cells)/EC50 (tumor cells). Background: Formazan colour is commonly taken as a measure of viable cells.
Data set [2] in a line: Cytotoxicity, MTT assay, Jb6 Cl 41-5a normal epithelial cells. The conditions noted are these: mouse, Jb6 Cl 41-5a normal epithelial cells.
The subject of data set [3] is S. aureus ATCC 21027. The data set can be described thus: Agar diffusion method, S. aureus. The class given is cell-based, Staphylococcus aureus. The conditions noted are these: Staphylococcus aureus, ATCC21027, 24 h, 100 µg/well, 24 h, incl. 7 mm well; read-out: Diameter of Zone Inhibition, S. aureus. As for the experimental part: as §1
For data set [4], the system named is mouse ascites Ehrlich carcinoma. In words: Cytotoxicity, nonspecific esterase (FDA) assay, ascites Ehrlich carcinoma cells. Particulars: for EC50: 24 h, read-out: Cytotoxicity (EC50), Ascites Ehrlich Carcinoma; for Selectivity Index (SI), Ascitic Ehrlich Carcinoma: SI = EC50 (Jb6 Cl 41-5a normal cells)/EC50 (tumor cells).
A short description of data set [5]: Cytotoxicity, statements of the text over all tested cell lines. The conditions noted are these: human, mouse.
Data set [6] has as its system human cervical cancer (HeLa). The data set can be described thus: Cytotoxicity, MTT assay, HeLa cells. Particulars: for EC50: 24 h, read-out: Cytotoxicity (EC50), HeLa; for Selectivity Index (SI), HeLa: SI = EC50 (Jb6 Cl 41-5a normal cells)/EC50 (tumor cells).
Data set [7] relates to Gram-positive bacteria (S. aureus, B. cereus). The data set can be described thus: Agar diffusion method, Gram-positive strains. The class given is cell-based, Staphylococcus aureus, Bacillus cereus. The conditions noted are these: Staphylococcus aureus; 100 µg/well; read-out: Antimicrobial activity / inhibition zone diameter, Gram-positive bacteria. As for the experimental part:
as §1

In a further data set the test system is C. albicans KMM 453. In words: Agar diffusion method, C. albicans. The conditions noted are these: Candida albicans, KMM453, 48 h, 100 µg/well, 48 h at 28 °C; read-out: Diameter of Zone Inhibition, C. albicans. The data set is classed as cell-based. As for the experimental part: as §1
The test system of data set [8] is S. aureus ATCC 21027. In words: Minimum inhibitory concentration, broth microdilution. The class given is cell-based, Staphylococcus aureus. The conditions noted are these: for MIC: Staphylococcus aureus, ATCC21027, broth microdilution, 24 h, read-out: Minimum inhibitory concentration (MIC) against S. aureus. As for the experimental part:
Stocks of substances were prepared in DMSO at a concentration of 10 mM. All studied compounds were tested in concentrations from 1.5 μM to 100 μM using twofold dilution. All tested compounds were add to the wells of the plates in a volume of 20 μL diluted in PBS (DMSO concentration < 1%). The bacterial culture of S. aureus ATCC 21027 (Collection of Marine Microorganisms PIBOC FEB RAS) was cultured in a Petri dish at 37 °C for 24 h on solid medium with the following composition; pepton—5.0 g/L, K2HPO4—0.2 g/L, glucose—1.0 g/L, MgSO4—0.05 g/L, yeast extract—1 g/L, agar—16.0 g/L, and distilled water—1.0 L. The pH of the medium was adjusted to 7.2–7.4 with NaOH solution.
The antimicrobial activity of the compounds was determined by the minimum inhibitory concentration (MIC) according to the method adopted by the Clinical and Laboratory Standards Institute (CLSI). Methods for dilution antimicrobial susceptibility tests for bacteria that grow aerobically followed the approved standard—tenth edition. CLSI document M07-A10, PA: Clinical and Laboratory Standards Institute; 2015, with a slight modification of the medium. The assays were performed in 96-well microplates in appropriate broth (pepton—5.0 g/L, K2HPO4—0.2 g/L, glucose—1.0 g/L, MgSO4—0.05 g/L, yeast extract—1 g/L, casein hydrolyzate—2.5 g/L, distilled water—1L). […] The MIC value is defined as the lowest concentration of compounds resulting in the complete inhibition of bacterial growth by measuring the absorbance at 600 nm with a microplate reader (BioTek, Winooski, Vt, USA). All experiments were performed twice in triplicate. Gentamicin was used as a positive control in concentration 1 mg/mL; 1% DMSO solution in PBS as a negative. The selectivity index for S. aureus has been defined as the ratio of EC50 for normal cells and the MIC value for the bacterial culture (SI = EC50/MIC).

Another data set in a line: Solubility in DMSO. The class given is physicochemical. Particulars: did not allow measurement of cytotoxic activity.
The nature of another data set: in vitro. Particulars: mouse.
Data set [9] relates to mouse normal epithelial cell line (JB6 Cl 41-5a). The data set can be described thus: Cytotoxicity, MTT assay, Jb6 Cl 41-5a normal epithelial cells. Particulars: read-out: Cytotoxicity (EC50), Jb6 Cl 41-5a; MTT reagent, 24 h, non-cancer cells.

Take `O=C1C2=C(S[C@@H]3O[C@H](CO)[C@H](O)[C@H](O)[C@H]3O2)C(=O)c2c(O)cccc21` [Compound 19b, (2R,3R,4S,4aR,12aS)-3,4,10-Trihydroxy-2-hydroxymethyl-3,4,4a,12a-tetrahydro-2H-naphtho[2,3-b]pyrano-[2,3-e][2,5]oxathiine-6,11-dione]: the zone of inhibition at 100 µg/disc is 0 mm in the data set on P. aeruginosa ATCC 27853; 0 mm with E. coli K-12; 8 ± 2 mm with B. cereus ATCC 10702; 0 mm in the data set on S. aureus ATCC 21027 [3]; no more than 10 mm in [7]; 0 mm with C. albicans KMM 453. Also, the EC50 (commonly the concentration giving half of the maximal effect) in data set [1] (N2a) is 2300 nM; in data set [4] (Mus musculus, Ehrlich), 700 nM; in data set [6] (Homo sapiens, HeLa), 2700 nM. Also, the “Selectivity Index (SI), Neuro-2a” value in [1] was found to be 0.4. Besides, the EC50 at 24 h was 900 nM in data set [2] and 600 to 900 nM in data set [5]. The “Selectivity Index (SI), Ascitic Ehrlich Carcinoma” value in [4] came out at 1.3. Further, in [6], the “Selectivity Index (SI), HeLa” value amounted to 0.3.

On to `O=C1C2=C(S[C@@H]3OC[C@H](O)[C@H](O)[C@H]3O2)C(=O)c2c(O)cccc21` [Compound 19d, (3S,4S,4aR,12aS)-3,4,10-Trihydroxy-3,4,4a,12a-tetrahydro-2H-naphtho[2,3-b]pyrano[2,3-e][2,5]oxathiine-6,11-dione], for which the melting point – broadly, the temperature of the solid-liquid transition – was 319 to 321 °C. The zone of inhibition at 100 µg/disc in the data set on P. aeruginosa ATCC 27853 was 0 mm. Besides, the zone of inhibition at 100 µg/disc in the data set with E. coli K-12 turned out to be 0 mm. Besides, the zone of inhibition at 100 µg/disc with B. cereus ATCC 10702 stood at 25 ± 2 mm. Besides, the EC50 in data set [1] (N2a) was 2200 nM. Besides, in data set [1], the “Selectivity Index (SI), Neuro-2a” value is recorded as 1. Also, a half-maximal response in data set [2] (EC50 at 24 h) required 2300 nM. For the same compound, in the data set on S. aureus ATCC 21027 [3], the zone of inhibition at 100 µg/disc amounted to 20 ± 3 mm. For the same compound, the EC50 in [4] (Mus musculus, Ehrlich) amounted to 1100 nM. In addition, in data set [4], the “Selectivity Index (SI), Ascitic Ehrlich Carcinoma” value came out at 2.1. Also, in data set [6] (Homo sapiens, HeLa), the EC50 is 1300 nM. In addition, the “Selectivity Index (SI), HeLa” value in [6] is given as 1.8. Besides, the “Selectivity index (SI) against S. aureus” value in the data set on S. aureus ATCC 21027 [8] (SI = EC50 (normal Jb6 Cl 41-5a cells)/MIC) is 0.4. The MIC in the data set on S. aureus ATCC 21027 [8] stood at 6.25 µM (≈ 2.1 µg/mL). In data set [7], the zone of inhibition at 100 µg/disc is 20 to 40 mm. Also, the zone of inhibition at 100 µg/disc in the data set on C. albicans KMM 453 turned out to be 0 mm.

Turning to `COc1ccc(OC)c2c1C(=O)C1=C(S[C@@H]3O[C@H](CO)[C@H](O)[C@H](O)[C@H]3O1)C2=O` [Compound 17b, (2R,3R,4S,4aR,12aS)-3,4-Dihydroxy-2-hydroxymethyl-7,10-dimethoxy-3,4,4a,12a-tetrahydro-2H-naphtho[2,3-b]pyrano[2,3-e][2,5]oxathiine-6,11-dione], the melting point was greater than 350 °C. Besides, in the data set on P. aeruginosa ATCC 27853, the zone of inhibition at 100 µg/disc was 0 mm. The zone of inhibition at 100 µg/disc in the data set on E. coli K-12 is 0 mm. Moreover, in the data set on B. cereus ATCC 10702, the “Diameter of Zone Inhibition, B. cereus” value was “+”. Moreover, the zone of inhibition at 100 µg/disc in the data set on S. aureus ATCC 21027 [3] amounted to 0 mm. Also, the “Solubility in DMSO” value in “Solubility in DMSO” is recorded as “poor solubility”. Besides, the zone of inhibition at 100 µg/disc in the data set on C. albicans KMM 453 amounted to 0 mm.

On to `O=C1C2=C(S[C@@H]3O[C@H](CO)[C@@H](O)[C@H](O)[C@H]3O2)C(=O)c2c(O)cccc21` [Compound 19a, (2R,3S,4S,4aR,12aS)-3,4,10-Trihydroxy-2-hydroxymethyl-3,4,4a,12a-tetrahydro-2H-naphtho[2,3-b]pyrano[2,3-e][2,5]oxathiine-6,11-dione], for which the zone of inhibition at 100 µg/disc with P. aeruginosa ATCC 27853, in the data set with E. coli K-12, in the data set with B. cereus ATCC 10702, in the data set on S. aureus ATCC 21027 [3] and in the data set with C. albicans KMM 453 was 0 mm each time. Besides, the EC50 in [1] (N2a) was 4100 nM; in [4] (Mus musculus, Ehrlich), 600 nM; in [6] (Homo sapiens, HeLa), 3700 nM. For the same compound, in [1], the “Selectivity Index (SI), Neuro-2a” value is 1.4. Besides, the values for the EC50 at 24 h in data set [2] and in data set [5] were 5600 nM and 600 to 900 nM, respectively. Also, the “Selectivity Index (SI), Ascitic Ehrlich Carcinoma” value in data set [4] is on record as 9.3. The “Selectivity Index (SI), HeLa” value in data set [6] is given as 1.5.

Consider `O=C1C=CC(=O)c2c(O)cccc21` [Juglone, 5-hydroxy-1,4-naphthoquinone, reference compound], for which, in the data set with P. aeruginosa ATCC 27853 (100 µg/well), the “Diameter of Zone Inhibition, P. aeruginosa” value came to 12 ± 2 mm. Also, the zone of inhibition at 100 µg/disc in the data set on P. aeruginosa ATCC 27853 is less than 20 mm; with E. coli K-12, 0 mm; with B. cereus ATCC 10702, 0 mm; in the data set with S. aureus ATCC 21027 [3], 0 mm. The EC50 in data set [1] (N2a) is greater than 100000 nM; in [4] (Mus musculus, Ehrlich), greater than 100000 nM; in the data set “in vitro”, greater than 100000 nM; in data set [6] (Homo sapiens, HeLa) it was greater than 100000 nM. This compound displayed a concentration giving a half-maximal response (EC50) at 24 h in data set [5] greater than 100000 nM. Moreover, the MIC in the data set with S. aureus ATCC 21027 [8] was greater than 100 µM.

Regarding `C=C(C)CCCC1(C)OC(=O)C23CCC4C(=CCC5C(C)(C)C(OC6OCC(OS(=O)(=O)O)C(O)C6OC6OC(C)C(OC7OC(CO)C(O)C(OC8OC(CO)C(O)C(OC)C8O)C7O)C(O)C6OC6OCC(O)C(O)C6O)CCC45C)C2(C)CC(=O)C13` (centres unmarked) [Cucumarioside A2-2, reference compound], the EC50 in data set [1] (MTT reagent) worked out at 37500 nM; in data set [9] it was 15100 nM; in [4] (FDA), 18500 nM; in data set [6] (MTT reagent), 42400 nM.
